Experimental data published in patent publication US20250376483A1, “PRODRUGS OF PAN-KRAS INHIBITORS” (Mirati Therapeutics, Inc., priority 2022, published 2025).

Tests used:
[1] = Whole Blood Stability Assay (mouse whole blood); assay type: in vitro ADME; conditions: CD-1 mouse blood, EDTA-K2, final conc. 2 μM, 37° C., 0-120 min; for half-life at 2 μM: male, fresh whole blood, read-out: Mouse Whole Blood Stability t1/2
Protocol: Whole Blood Stability Assay
This Example illustrates that exemplary compounds of the present invention is cleavage in mouse whole blood.
(§1) Test Compounds and Stock Solutions: Stock Conc. 10 mM; Final Conc. 2 μM
(§2) Test Compound and Control Working Solution Preparation:
• Intermediate solution: 5 μL of compound stock solution (10 mM in dimethyl sulfoxide (DMSO)) were diluted with […] of DMSO (intermediate solution concentration: 1 mM, 100% DMSO) • Propantheline bromide (control) intermediate solution: 5 μL of propantheline stock solution (10 mM in ultra-pure water) were diluted with 45 μL of ultra-pure water (intermediate solution concentration: 1 mM) • Working solution 1: 20 μL of test compound intermediate solution (1 mM) were diluted with 180 μL of 45% ACN/H2O (working solution concentration: […], 40.5% ACN, 10% DMSO) • Working solution 2: 20 μL of control intermediate solution (1 mM) were diluted with 180 μL of 45% ACN/H2O (working solution concentration: 100 μM, 40.5% ACN, 10% DMSO) • Species/Matrix: CD-1 Mouse Blood • No. of Individuals: n>3 Male • Anticoagulant Used: EDTA-K2
• The fresh blood was collected on the day of experiment and pre-warmed in a water bath at 37° C. • Using an Apricot automation workstation, 98 μL/well of blank blood were added to all 96-well reaction plates (Blank, T0, T10, T30, T60 and T120). • An Apricot automation workstation was used to add 2 μL/well of working solution (100 μM) to all reaction plates except Blank (T0, T10, T30, T60 and T120). • All reaction plates containing mixtures of compound and blood were incubated at 37° C. in water bath. • The reaction plates were incubated at 37° C., and timer was started. • At the end of incubation, mixed 100 μL water with 100 μL spiked blood samples, then added 800 μL of stop solution (200 ng/mL tolbutamide and 200 ng/mL labetalol in ACN) to precipitate protein. Mixed thoroughly. • Each plate was sealed and shaken for 20 minutes. • After shaking, each plate was centrifuged at 4000 rpm and 4° C. for 20 minutes. • After centrifugation, an Apricot automation workstation was used to transfer 150 μL of supernatant from each reaction plate to its corresponding bioanalysis plate. • Each bioanalysis plate was submitted to LC-MS/MS analysis.
• The % remaining of test compound after incubation in blood was calculated using following equation:
(§3) [formula] • where PAR is the peak area ratio of analyte versus internal standard (IS) • The appointed incubation time points are TO (0 min), Tn (n=0, 10, 30, 60 and 120 min)

[2] = Plasma Stability Assay (human plasma); assay type: in vitro ADME; conditions: both sexes; pooled human plasma, heparin, final conc. 2 μM, 37° C., 0-120 min; read-out: Human Plasma Stability t1/2
Protocol: This Example illustrates that exemplary compounds of the present invention is cleavage in human plasma.
as §1, §2
• Test compound intermediate solution: 10 μL of compound stock solution (10 mM in dimethyl sulfoxide (DMSO)) were diluted with 90 μL of DMSO (intermediate solution concentration: 1 mM, 100% DMSO) • Control intermediate solution: 10 μL of control stock solution (10 mM in dimethyl sulfoxide (DMSO)) were diluted with 90 μL of DMSO (intermediate solution concentration: 1 mM, 100% DMSO) • Species/Matrix: Human Plasma • No. of Individuals: 3 Male & 3 Female • Anticoagulant Used: Heparin
• The pooled frozen plasma was thawed in a water bath at 37° C. prior to experiment. Plasma was centrifuged at 4000 rpm for 5 min and the clots were removed if any. • Using an Apricot automation workstation, 98 μL/well of blank plasma were added to all 96-well reaction plates. (Blank, T0, T10, T30, T60 and T120) • An Apricot automation workstation was used to add 2 μL/well of working solution (100 μM) to all reaction plates except Blank. (T0, T10, T30, T60 and T120) • All reaction plates containing mixtures of compound and plasma were incubated at 37° C. in water bath. • The reaction plates were incubated at 37° C., and timer was started. • At the end of incubation, added 500 μL of stop solution (200 ng/mL tolbutamide and 200 ng/mL labetalol in ACN) to precipitate protein. Mixed thoroughly. • Each plate was sealed and shaken for 20 minutes. • After shaking, each plate was centrifuged at 4000 rpm and 4° C. for 20 minutes • After centrifugation, an Apricot automation workstation was used to transfer 50 μL supernatant into 100 μL HPLC water. • Each bioanalysis plate was sealed and shaken for 10 minutes prior to LC-MS/MS analysis Data Analysis • The % remaining of test compound after incubation in blood was calculated using following equation:
as §3

| SMILES | half-life at 2 μM [1] [min] | half-life at 2 μM [2] [min] | Mouse Whole Blood Stability t1/2 [1] [min] |
| --- | --- | --- | --- |
| CCc1c(F)ccc2cc(OC(=O)OC(C)C)cc(N3CCc4c(nc(OC[C@@]56CCCN5C[C@H](F)C6)nc4N4CCC[C@]5(C4)NC(=O)NC5=O)C3)c12 [Example 40, 4-(4-((R)-2,4-dioxo-1,3,7-triazaspiro[4.5]decan-7-yl)-2-(((2R,7aS)-2-fluorotetrahydro-1H-pyrrolizin-7a(5H)-yl)methoxy)-5,8-dihydropyrido[3,4-d]pyrimidin-7(6H)-yl)-5-ethyl-6-fluoronaphthalen-2-yl isopropyl carbonate] | 2 | 95 |  |
| CCc1c(F)ccc2cc(OC(=O)C3CCCC3)cc(-c3ncc4c(N5C[C@@H]6C[C@H](C5)[C@H](O)C6)nc(OC[C@@]56CCCN5C[C@H](F)C6)nc4c3F)c12 [Example 17, 5-ethyl-6-fluoro-4-(8-fluoro-2-(((2R,7aS)-2-fluorotetrahydro-1H-pyrrolizin-7a(5H)-yl)methoxy)-4-((1R,5R,6R)-6-hydroxy-3-azabicyclo[3.2.1]octan-3-yl)pyrido[4,3-d]pyrimidin-7-yl)naphthalen-2-yl cyclopentanecarboxylate] |  | 41 | 1 |
| CCc1c(F)ccc2cc(OC(=O)N3CCCC[C@@H]3C)cc(N3CCc4c(nc(OC[C@@]56CCCN5C[C@H](F)C6)nc4N4CCC[C@]5(C4)NC(=O)NC5=O)C3)c12 [Example 55, 4-(4-((R)-2,4-dioxo-1,3,7-triazaspiro[4.5]decan-7-yl)-2-(((2R,7aS)-2-fluorotetrahydro-1H-pyrrolizin-7a(5H)-yl)methoxy)-5,8-dihydropyrido[3,4-d]pyrimidin-7(6H)-yl)-5-ethyl-6-fluoronaphthalen-2-yl(S)-2-methylpiperidine-1-carboxylate] | > 289 | > 289 |  |
| CCc1c(F)ccc2cc(OC(=O)N3CCC(C)CC3)cc(N3CCc4c(nc(OC[C@@]56CCCN5C[C@H](F)C6)nc4N4CCC[C@]5(C4)NC(=O)NC5=O)C3)c12 [Example 56, 4-(4-((R)-2,4-dioxo-1,3,7-triazaspiro[4.5]decan-7-yl)-2-(((2R,7aS)-2-fluorotetrahydro-1H-pyrrolizin-7a(5H)-yl)methoxy)-5,8-dihydropyrido[3,4-d]pyrimidin-7(6H)-yl)-5-ethyl-6-fluoronaphthalen-2-yl 4-methylpiperidine-1-carboxylate] | > 289 | > 289 |  |
| CCc1c(F)ccc2cc(OC(=O)C3(C)CCC3)cc(N3CCc4c(nc(OC[C@@]56CCCN5C[C@H](F)C6)nc4N4CCC[C@]5(C4)NC(=O)NC5=O)C3)c12 [Example 61, 4-(4-((R)-2,4-dioxo-1,3,7-triazaspiro[4.5]decan-7-yl)-2-(((2R,7aS)-2-fluorotetrahydro-1H-pyrrolizin-7a(5H)-yl)methoxy)-5,8-dihydropyrido[3,4-d]pyrimidin-7(6H)-yl)-5-ethyl-6-fluoronaphthalen-2-yl 1-methylcyclobutane-1-carboxylate] | 2 | > 289 |  |
| CCOC(=O)Oc1cc(-c2ncc3c(N4C[C@@H]5C[C@H](C4)[C@H](O)C5)nc(OC[C@@]45CCCN4C[C@H](F)C5)nc3c2F)c2c(CC)c(F)ccc2c1 [Example 12, ethyl (5-ethyl-6-fluoro-4-(8-fluoro-2-(((2R,7aS)-2-fluorotetrahydro-1H-pyrrolizin-7a(5H)-yl)methoxy)-4-((1R,5R,6R)-6-hydroxy-3-azabicyclo[3.2.1]octan-3-yl)pyrido[4,3-d]pyrimidin-7-yl)naphthalen-2-yl) carbonate] | < 5 | 26 |  |
| CCc1c(F)ccc2cc(OC(=O)N3CCC[C@H](C)C3)cc(N3CCc4c(nc(OC[C@@]56CCCN5C[C@H](F)C6)nc4N4CCC[C@]5(C4)NC(=O)NC5=O)C3)c12 [Example 59, 4-(4-((R)-2,4-dioxo-1,3,7-triazaspiro[4.5]decan-7-yl)-2-(((2R,7aS)-2-fluorotetrahydro-1H-pyrrolizin-7a(5H)-yl)methoxy)-5,8-dihydropyrido[3,4-d]pyrimidin-7(6H)-yl)-5-ethyl-6-fluoronaphthalen-2-yl (S)-3-methylpiperidine-1-carboxylate] | > 289 | > 289 |  |
| CCOC(=O)Oc1cc(N2CCc3c(nc(OC[C@@]45CCCN4C[C@H](F)C5)nc3N3CCC[C@]4(C3)NC(=O)NC4=O)C2)c2c(CC)c(F)ccc2c1 [Example 36, 4-(4-((R)-2,4-dioxo-1,3,7-triazaspiro[4.5]decan-7-yl)-2-(((2R,7aS)-2-fluorotetrahydro-1H-pyrrolizin-7a(5H)-yl)methoxy)-5,8-dihydropyrido[3,4-d]pyrimidin-7(6H)-yl)-5-ethyl-6-fluoronaphthalen-2-yl ethyl carbonate] | 3 | 33 |  |
| CCc1c(F)ccc2cc(OC(=O)N3CCC3)cc(N3CCc4c(nc(OC[C@@]56CCCN5C[C@H](F)C6)nc4N4CCC[C@]5(C4)NC(=O)NC5=O)C3)c12 [Example 37, 4-(4-((R)-2,4-dioxo-1,3,7-triazaspiro[4.5]decan-7-yl)-2-(((2R,7aS)-2-fluorotetrahydro-1H-pyrrolizin-7a(5H)-yl)methoxy)-5,8-dihydropyrido[3,4-d]pyrimidin-7(6H)-yl)-5-ethyl-6-fluoronaphthalen-2-yl azetidine-1-carboxylate] | 189 | > 289 |  |
| CCCCCC(=O)Oc1cc(N2CCc3c(nc(OC[C@@]45CCCN4C[C@H](F)C5)nc3N3CCC[C@]4(C3)NC(=O)NC4=O)C2)c2c(CC)c(F)ccc2c1 [Example 44, 4-(4-((R)-2,4-dioxo-1,3,7-triazaspiro[4.5]decan-7-yl)-2-(((2R,7aS)-2-fluorotetrahydro-1H-pyrrolizin-7a(5H)-yl)methoxy)-5,8-dihydropyrido[3,4-d]pyrimidin-7(6H)-yl)-5-ethyl-6-fluoronaphthalen-2-yl hexanoate] |  | 142 | 1 |
| CCc1c(F)ccc2cc(OC(=O)C3CCCCC3)cc(N3CCc4c(nc(OC[C@@]56CCCN5C[C@H](F)C6)nc4N4CCC[C@]5(C4)NC(=O)NC5=O)C3)c12 [Example 47, 4-(4-((R)-2,4-dioxo-1,3,7-triazaspiro[4.5]decan-7-yl)-2-(((2R,7aS)-2-fluorotetrahydro-1H-pyrrolizin-7a(5H)-yl)methoxy)-5,8-dihydropyrido[3,4-d]pyrimidin-7(6H)-yl)-5-ethyl-6-fluoronaphthalen-2-yl cyclohexanecarboxylate] | 4 | 223 |  |
| CCc1c(F)ccc2cc(OC(C)=O)cc(N3CCc4c(nc(OC[C@@]56CCCN5C[C@H](F)C6)nc4N4CCC[C@]5(C4)NC(=O)NC5=O)C3)c12 [Example 27, 4-(4-((R)-2,4-dioxo-1,3,7-triazaspiro[4.5]decan-7-yl)-2-(((2R,7aS)-2-fluorotetrahydro-1H-pyrrolizin-7a(5H)-yl)methoxy)-5,8-dihydropyrido[3,4-d]pyrimidin-7(6H)-yl)-5-ethyl-6-fluoronaphthalen-2-yl acetate] | 2 | 12 |  |
